{
  "source": "patent US20140179800A1",
  "about": "“Inhibition of the Survival of Bladder Cancer by Cyclohexenone Compounds from Antrodia Camphorata” (Golden Biotechnology Corporation, priority 2009, published 2014)",
  "system": "bladder cancer cell line TSGH-8301",
  "assay": "In vitro survival assay (MTT) for anti-bladder cancer effects",
  "format": "cell-based",
  "conditions": "TSGH-8301 human bladder carcinoma cells, 48 hours, survival rate",
  "description": "Inhibiting effects of bladder cancer cells by cyclohexenone compounds of Antrodia camphorata from example 1 were assessed according to the anticancer-drug screening model of National Cancer Institute (NCI). The compound 4-hydroxy-2,3-dimethoxy-6-methyl-5-(3,7,11-trimethyl-dodeca-2,6,10-trienyl)-cyclohex-2-enone from example 1 was added into the culture media of bladder cancer cell line TSGH-8301 to determine the survival rates. Survival of cell was analyzed using MTT assay. TSGH-8301 cell line was a human bladder carcinoma cell line.\nMTT assay is commonly used to analyze cell proliferation, survival rate of viable cells and cytotoxicity. MTT (3[4,5-dimethylthiazol-2-yl]-2,5-diphenyltetrazolium bromide) is a yellow dye which can be converted to water-insoluble purple formazan on the reductive cleavage of its tetrazolium ring by the succinate tetrazolium reductase in mitochondria of cells. The amount of formazan produced is used to detect the number of viable cells and calculate the survival rates.\nThe TSGH-8301 cells were cultivated in DMEM medium supplemented with 10% fetal bovine serum, 100 U/ml of Penicillin and 100 μg/ml of Streptomycin at 37° C., 5% CO2 for 24 hours. Proliferated cells were washed once with PBS, treated with 1× trypsin-EDTA, and centrifuged at 1200 rpm for 5 min. […] The absorbances were measured at 570 nm with an ELISA Reader to determine the survival rates.",
  "data": [
    {"smiles": "COC1=C(OC)C(O)C(C/C=C(\\C)CC/C=C(\\C)CCC=C(C)C)C(C)C1=O", "note": "(stereo not shown) [formula 2, 4-hydroxy-2,3-dimethoxy-6-methyl-5-(3,7,11-trimethyl-dodeca-2,6,10-trienyl)-cyclohex-2-enone]", "values": [
      {"measurement": "IC50", "value": 1.05, "unit": "µg/mL"}
    ]}
  ]
}
